Drawing on patent publication US10647680B2, “Urea compound, preparation method therefor and medical use thereof” (Ancureall Pharmaceutical (Shanghai) Co., Ltd., priority 2016, dated 2020), this text covers efflux ratio, Papp A→B and Papp B→A for one compound.

What is called Papp A→B is how fast a substance crosses the layer from the apical side. What is called Papp B→A is how fast a substance crosses the layer from the basolateral side.

Read-outs that look alike come from different tables or passages of the source. Where only a bound is given, the exact number is not on record here.

Series [1] has as its system P-gp. The series is described as follows: Bidirectional transmembrane transport and P-gp efflux in Caco-2 monolayer cell model. The class given is in vitro ADME. To be noted: human, Caco-2, pH 7.4; Concentration 10, Inhibitor − (without P-gp inhibitor GF120918); read-out: Efflux Ratio Papp (B→A)/Papp (A→B). The method, then: (§1) The Caco-2 cell transport experiment was performed using compound 77 of the present invention as a representative example.
(§2) Main procedure: Caco-2 cells (ATCC, HTB-37) were cultured in high-glucose DMEM culture medium (Hyclone) containing 10% fetal calf serum (GIBCO) and penicillin-streptomycin (100 units/mL each) (Sigma). Cells were cultured at 37° C. in an incubator containing 5% CO2. In the transport experiment, Caco-2 cells were inoculated on a filter of a 12-well Transwell plate at a density of 2×10^5 cells/well (Coming Costar, catalog #3401, 1.12 cm^2, 0.4 um of pore size). After inoculation, the Caco-2 cells would form intact cell monolayers after 21 days, including P-gp efflux transporter expression and transepithelial cell resistance (TEER) formation. During the period, the culture medium was replaced once every other day. The volume of culture medium at the transwell membrane Apical Side (A) and Basolateral Side (B) were 0.5 mL and 1.5 mL, respectively. Before the transport experiment (day 21), the preheated HBSS buffer (137 mM NaCl, 4.17 mM NaHCO3, 0.34 mM Na2HPO4, 5.37 mM KCl, 0.44 mM KH2PO4, 1.26 mM CaCl2, 0.49 mM MgCl2, 0.41 mM MgSO4, 5.55 Mm D-Glucose, 10 mM HEPES, pH 7.4) was used firstly to wash Caco-2 cell monolayers for three times, and placed to at 37° C. for incubation for 30 minutes, then TEER values were determined using a cell resistometer (Millicell-ERS2) to confirm the integrity and compactness of the cell monolayers. When the HBSS buffer solution on the transmembrane A-side or B-side was replaced with the test compound, the transport experiment was started.
(§3) Finally, after incubation at 37° C. for 2 hours, the transport experiment was terminated and 50 uL of sample solution was taken from both sides of the Transwell filter membrane separately and added to 100 μL of acetonitrile comprising internal standard compound and mixed well, then centrifuged at 13000 rpm, 4° C. for 10 min, and finally 10 μL (or a specific volume) of supernatant was used for LC-MS/MS sample analysis.
(§4) For each compound, transport experiments in the A-B and B-A directions had three replicates, i.e. n=3.
(§5) LC-MS/MS Sample Analysis: The high performance liquid chromatography (HPLC) system used in this research consisted of two pumps (Shimadzu LC-20AD) and an autosampler (Shimadzu SIL-20AC). The HPLC system was connected in series with an API 4000 triple quadrupole mass spectrometer (Applied Biosystems). The API 4000 triple quadrupole mass spectrometer was equipped with an electrospray ionization (ESI) source. Ultrapurified nitrogen was used as curtain gas, GAS1, GAS2, and collision gas, at flow rates of 20 L/h, 55 L/h, 65 L/h, and 6 L/hr, respectively. The atomization temperature of the ion source was set to 500° C. Data was collected using the software Analyst 1.5.
(§6) Data analysis: The apparent permeability coefficient (Papp) can be calculated by the rate at which a compound permeates the monolayer of Caco-2 cells. Its value is related to the absorption of the compound in vivo. After concentrations at A side and B side were determined by LC-MS/MS, the Papp value in the A-B or B-A direction was calculated according to the following formula: Papp(A→B) or Papp(B→A)=(dQ/dt)/(A*C0)=(C2h*V)/(t*π2*C0)
(§7) In the above formula, dQ/dt is the permeation rate, i.e. the amount of compound that permeated in the dt time, C0 is the initial concentration of drug on the administration side, and A is the surface area of the cell monolayer, i.e. the membrane area.
(§8) After obtaining the Papp (A→B) and Papp (B→A) values of the compound, the Efflux Ratio (ER) of the compound could be calculated by the following formula: Efflux Ratio(ER)=Papp(B−A)/Papp(A−B).
(§9) When the ratio of efflux was >2, the compound could be considered as the substrate of the efflux transporter.
Background: Caco-2 cells form a polarised layer with tight junctions and transporters.

Assay in series [2]: as above
The class given is in vitro ADME. To be noted: human. The method, then: as §1, §2, §3, §4, §5, §6, §7, §8, §9

With `C[C@H]1O[C@@H](O[C@H]2[C@@H](O)C[C@H](O[C@H]3[C@@H](O)C[C@H](O[C@H]4CC[C@@]5(C)[C@H](CC[C@@H]6[C@@H]5C[C@@H](O)[C@]5(C)[C@@H](C7=CC(=O)OC7)CC[C@]65O)C4)O[C@@H]3C)O[C@@H]2C)C[C@H](O)[C@@H]1O` [Digoxin], the efflux ratio at 2 h in series [1] worked out at 322. Moreover, the Papp A→B at 2 h in series [2] (Caco-2, pH 7.4, Caco-2 monolayer cell model, transmembrane permeability, read-out: Papp(A→B) value (conclusions under the table)) was below 1 ×10⁻⁶ cm/s; in series [2] (Caco-2, pH 7.4, Concentration 10, Inhibitor − (without P-gp inhibitor GF120918), read-out: Papp (A→B)), 0.06 ×10⁻⁶ cm/s. The same compound registered a Papp B→A at 2 h in series [2] (Caco-2, pH 7.4, Concentration 10, Inhibitor − (without P-gp inhibitor GF120918)) of 20.4 ×10⁻⁶ cm/s.
